Assay results reported in patent US9206219B2, “17-hydroxy-17-pentafluorethyl-estra-4,9(10)-dien-11-aryl derivatives, methods for the production thereof and the use thereof for treating diseases” (Bayer Intellectual Property GmbH, priority 2009, dated 2015).

Columns and labels:
[1] = Metabolic stability in rat liver microsomes; format: in vitro ADME; settings: calculated from liver microsome clearance
Procedure: (§1) Determination of Metabolic Stability in Human and Rat Liver Microsomes
(§2) The incubations were conducted with 2.4 ml of HLM solution (protein content 0.5 mg/ml), 30 μl of the test compound (final concentration 1 μM) and 0.6 ml of the cofactor mixture (=NADPH-generating system composed of 3 IU glucose-6-phosphate dehydrogenase, 14.6 mg glucose-6-phosphate, 1.2 mg NADP) at 37° C. in 100 mM phosphate buffer at pH 7.4. Samples were taken at 6 time points (2-60 min) and precipitated with an equal volume of methanol, and the recovery of the test substances used in the supernatant was determined by LC-MS/MS analysis. The half-life of substance degradation determined therefrom was used to calculate what is called the intrinsic clearance of the substance in the liver microsome preparation. […] In addition, under the assumptions that (i) absorption of the test substance is 100%, and (ii) the first pass is completely reflected by liver microsome metabolism, a maximum oral bioavailability (Fmax) was calculated.

[2] = molecular target: T1, human progesterone receptor A (Homo sapiens, UniProt P06401); assay: Progesterone receptor-antagonistic action in stably transfected SK-N-MC cells, MMTV-LUC reporter (PR-A); format: cell-based; settings: antagonistic potency vs 0.1 nmol/l promegestone, 24 hours
T1 construct: expressed in transfected cells; host or cells: SK-N-MC human neuroblastoma cells, stably transfected with pRChPR-A-neo and pMMTV-LUC
T1 sequence (P06401 1-769 isoform P06401-2): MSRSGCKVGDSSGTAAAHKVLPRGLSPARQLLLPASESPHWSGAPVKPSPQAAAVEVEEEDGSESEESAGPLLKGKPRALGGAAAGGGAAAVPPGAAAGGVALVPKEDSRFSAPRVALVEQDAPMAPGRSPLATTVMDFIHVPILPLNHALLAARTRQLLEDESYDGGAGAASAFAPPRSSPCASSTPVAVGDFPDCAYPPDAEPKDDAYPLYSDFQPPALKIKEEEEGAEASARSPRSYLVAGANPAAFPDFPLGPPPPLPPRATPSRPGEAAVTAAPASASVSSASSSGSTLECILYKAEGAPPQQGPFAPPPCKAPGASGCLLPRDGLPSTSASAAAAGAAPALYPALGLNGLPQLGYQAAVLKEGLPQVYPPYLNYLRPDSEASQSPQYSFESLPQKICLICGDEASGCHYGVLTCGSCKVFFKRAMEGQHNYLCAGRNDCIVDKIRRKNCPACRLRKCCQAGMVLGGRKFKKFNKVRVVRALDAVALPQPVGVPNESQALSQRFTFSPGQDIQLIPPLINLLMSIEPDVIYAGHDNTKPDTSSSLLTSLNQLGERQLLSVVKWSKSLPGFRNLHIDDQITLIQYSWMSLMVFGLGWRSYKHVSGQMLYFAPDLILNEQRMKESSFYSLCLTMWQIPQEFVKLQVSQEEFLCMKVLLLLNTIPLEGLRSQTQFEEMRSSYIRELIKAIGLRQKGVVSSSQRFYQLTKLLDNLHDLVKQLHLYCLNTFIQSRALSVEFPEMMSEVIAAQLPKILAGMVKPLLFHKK
Method in brief: (§3)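 Stably transfected SK-N-MC cells express human PR-B or PR-A plus MMTV-LUC. For antagonism they were co-treated with 0.1 nmol/l promegestone and compound (0.01 nmol/l upward) for 24 hours. Luciferase in lysates was read as RLU and reported as % efficacy and IC50.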

[3] = Metabolic stability in human liver microsomes; format: in vitro ADME; settings: calculated from liver microsome clearance
Procedure: as §1
Isolated human liver microsomes (HLM) were used to assess the metabolic stability of compounds of general formula I.
as §2

[4] = molecular target: T2, human progesterone receptor B (Homo sapiens, UniProt P06401); assay: Progesterone receptor-antagonistic action in stably transfected SK-N-MC cells, MMTV-LUC reporter (PR-B); format: cell-based; settings: antagonistic potency vs 0.1 nmol/l promegestone, 24 hours
T2 construct: expressed in transfected cells; host or cells: SK-N-MC human neuroblastoma cells, stably transfected with pRChPR-B-neo and pMMTV-LUC
T2 sequence (P06401 1-933): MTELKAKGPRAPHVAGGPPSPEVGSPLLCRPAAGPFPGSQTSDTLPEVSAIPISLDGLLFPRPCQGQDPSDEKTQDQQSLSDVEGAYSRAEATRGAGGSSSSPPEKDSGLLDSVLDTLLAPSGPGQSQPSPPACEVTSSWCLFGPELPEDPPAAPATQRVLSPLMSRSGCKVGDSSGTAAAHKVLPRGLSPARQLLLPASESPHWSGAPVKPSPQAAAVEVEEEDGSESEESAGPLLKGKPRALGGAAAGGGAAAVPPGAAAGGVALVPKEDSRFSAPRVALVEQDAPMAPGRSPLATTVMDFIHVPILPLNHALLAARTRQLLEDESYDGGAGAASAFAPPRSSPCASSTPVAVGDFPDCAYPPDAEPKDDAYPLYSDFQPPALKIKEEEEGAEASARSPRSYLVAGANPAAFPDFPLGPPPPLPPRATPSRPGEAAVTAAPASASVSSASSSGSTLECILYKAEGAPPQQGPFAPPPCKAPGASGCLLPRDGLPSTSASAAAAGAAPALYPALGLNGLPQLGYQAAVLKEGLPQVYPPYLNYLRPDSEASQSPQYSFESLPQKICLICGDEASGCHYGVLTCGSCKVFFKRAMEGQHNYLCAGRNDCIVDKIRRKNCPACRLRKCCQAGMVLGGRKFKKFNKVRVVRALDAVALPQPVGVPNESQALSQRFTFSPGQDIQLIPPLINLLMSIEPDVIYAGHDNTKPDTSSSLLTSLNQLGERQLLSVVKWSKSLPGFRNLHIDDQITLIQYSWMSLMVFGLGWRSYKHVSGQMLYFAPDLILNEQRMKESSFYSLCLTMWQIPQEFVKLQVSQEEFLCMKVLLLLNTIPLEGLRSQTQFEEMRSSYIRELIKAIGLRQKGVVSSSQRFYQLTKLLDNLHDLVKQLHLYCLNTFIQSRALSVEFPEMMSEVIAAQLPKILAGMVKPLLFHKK
Method in brief: as §3

SMILES	Predicted Fmax (maximum oral bioavailability) [1]	IC50 [2]	Predicted Fmax (maximum oral bioavailability) [3]	IC50 [4]
CC(CO)(CO)c1ccc([C@H]2C[C@@]3(C)[C@@H](CC[C@@]3(O)C(F)(F)C(F)(F)F)[C@@H]3CCC4=CC(=O)CCC4=C32)cc1 [Example 15A, (8S,11R,13S,14S,17S)-17-hydroxy-11-[4-(2-hydroxy-1-hydroxymethyl-1-methylethyl)phenyl]-13-methyl-17-pentafluoroethyl-1,2,6,7,8,11,12,13,14,15,16,17-dodecahydrocyclopenta[a]phenanthren-3-one]	59%	0.09 nM	8.5%	0.1 nM
C[C@]12C[C@H](c3ccc(CNC(=O)Nc4ccccc4)cc3)C3=C4CCC(=O)C=C4CC[C@H]3[C@@H]1CC[C@@]2(O)C(F)(F)C(F)(F)F [Example 24, 1-[4-((8S,11R,13S,14S,17S)-17-hydroxy-13-methyl-3-oxo-17-pentafluoroethyl-2,3,6,7,8,11,12,13,14,15,16,17-dodecahydro-1H-cyclopenta[a]phenanthren-11-yl)benzyl]-3-phenyl urea]	77%	0.4 nM	–	0.5 nM
C[C@]12C[C@H](c3ccc(-c4ccc(-c5nnn[nH]5)cc4)cc3)C3=C4CCC(=O)C=C4CC[C@H]3[C@@H]1CC[C@@]2(O)C(F)(F)C(F)(F)F [Example 29, (8S,11R,13S,14S,17S)-17-hydroxy-13-methyl-17-pentafluoroethyl-11-[4′-(1H-tetrazol-5-yl)biphenyl-4-yl]-1,2,6,7,8,11,12,13,14,15,16,17-dodecahydrocyclopenta[a]phenanthren-3-one]	93%	0.3 nM	69%	0.9 nM
CCNC(=O)OCc1ccc([C@H]2C[C@@]3(C)[C@@H](CC[C@@]3(O)C(F)(F)C(F)(F)F)[C@@H]3CCC4=CC(=O)CCC4=C32)cc1 [Example 41, ethylcarbamic acid 4-((8S,11R,13S,14S,17S)-17-hydroxy-13-methyl-3-oxo-17-pentafluoroethyl-2,3,6,7,8,11,12,13,14,15,16,17-dodecahydro-1H-cyclopenta[a]phenanthren-11-yl)benzyl ester]	49%	0.09 nM	–	0.1 nM

The next lines start with the values.

Predicted Fmax (maximum oral bioavailability) [1]	IC50 [2]	Predicted Fmax (maximum oral bioavailability) [3]	IC50 [4]	SMILES
52%	0.012 nM	37%	0.012 nM	CC1(c2ccc([C@H]3C[C@@]4(C)[C@@H](CC[C@@]4(O)C(F)(F)C(F)(F)F)[C@@H]4CCC5=CC(=O)CCC5=C43)cc2)CC1 [Example 4, (8S,11R,13S,14S,17S)-17-hydroxy-13-methyl-11-[4-(1-methylcyclopropyl)phenyl]-17-pentafluoroethyl-1,2,6,7,8,11,12,13,14,15,16,17-dodecahydrocyclopenta[a]phenanthren-3-one]
52%	0.016 nM	44%	0.09 nM	CC(C)(O)c1ccc([C@H]2C[C@@]3(C)[C@@H](CC[C@@]3(O)C(F)(F)C(F)(F)F)[C@@H]3CCC4=CC(=O)CCC4=C32)cc1 [Example 5, (8S,11R,13S,14S,17S)-17-hydroxy-11-[4-(1-hydroxy-1-methylethyl)phenyl]-13-methyl-17-pentafluoroethyl-1,2,6,7,8,11,12,13,14,15,16,17-dodecahydrocyclopenta[a]phenanthren-3-one]
4.7%	0.01 nM	5.0%	0.01 nM	CC1(C)OCC(C)(c2ccc([C@H]3C[C@@]4(C)[C@@H](CC[C@@]4(O)C(F)(F)C(F)(F)F)[C@@H]4CCC5=CC(=O)CCC5=C43)cc2)CO1 [Example 15B, (8S,11R,13S,14S,17S)-17-hydroxy-13-methyl-17-pentafluoroethyl-11-[4-(2,2,5-trimethyl-[1,3]dioxan-5-yl)phenyl]-1,2,6,7,8,11,12,13,14,15,16,17-dodecahydrocyclopenta[a]phenanthren-3-one]
79%	0.02 nM	63%	0.08 nM	C[C@]12C[C@H](c3ccc(C#N)cc3)C3=C4CCC(=O)C=C4CC[C@H]3[C@@H]1CC[C@@]2(O)C(F)(F)C(F)(F)F [Example 30, 4-((8S,11R,13S,14S,17S)-17-hydroxy-13-methyl-3-oxo-17-pentafluoroethyl-2,3,6,7,8,11,12,13,14,15,16,17-dodecahydro-1H-cyclopenta[a]phenanthren-11-yl)benzonitrile]
